Here are results for 41 compounds from ChEMBL document CHEMBL1149662, “Design and synthesis of a library of tertiary amides: evaluation as mimetics of the melanocortins' active core” (Bioorg Med Chem, 2007).

By Ki is commonly meant the equilibrium dissociation constant of an inhibitor or competing ligand from its target.

One experiment deals with Melanocortin receptor 4 (Homo sapiens, UniProt P32245). Description: Displacement of [125I]NDP-MSH from human recombinant MC4 receptor expressed in Sf9 cells. For orientation: Loss of bound radioactivity is the signal in a displacement assay; it reports binding, not function.
Another experiment concerns the target Melanocortin receptor 3 (Homo sapiens, UniProt P41968). Briefly: Displacement of [125I]NDP-MSH from human recombinant MC3 receptor expressed in Sf9 cells.
The target in experiment [1] is Melanocyte-stimulating hormone receptor (Mus musculus, UniProt Q01727). Briefly: Displacement of [125I]NDP-MSH from MC1 receptor in mouse B16 cells. It counts as cell-based.
In another experiment the target is Melanocortin receptor 5 (Homo sapiens, UniProt P33032). Description: Displacement of [125I]NDP-MSH from human recombinant MC5 receptor expressed in Sf9 cells.
Sequence of Melanocortin receptor 5 (P33032 whole entry): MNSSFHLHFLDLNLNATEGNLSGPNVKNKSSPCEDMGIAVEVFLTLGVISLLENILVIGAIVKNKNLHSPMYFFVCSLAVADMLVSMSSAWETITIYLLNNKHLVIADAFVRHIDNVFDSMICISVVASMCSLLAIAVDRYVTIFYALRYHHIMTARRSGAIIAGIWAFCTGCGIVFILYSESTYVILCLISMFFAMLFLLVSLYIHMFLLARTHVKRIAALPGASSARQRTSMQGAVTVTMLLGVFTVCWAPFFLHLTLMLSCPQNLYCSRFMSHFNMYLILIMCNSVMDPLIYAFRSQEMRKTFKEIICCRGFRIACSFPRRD

Sequence of Melanocyte-stimulating hormone receptor (Q01727 whole entry): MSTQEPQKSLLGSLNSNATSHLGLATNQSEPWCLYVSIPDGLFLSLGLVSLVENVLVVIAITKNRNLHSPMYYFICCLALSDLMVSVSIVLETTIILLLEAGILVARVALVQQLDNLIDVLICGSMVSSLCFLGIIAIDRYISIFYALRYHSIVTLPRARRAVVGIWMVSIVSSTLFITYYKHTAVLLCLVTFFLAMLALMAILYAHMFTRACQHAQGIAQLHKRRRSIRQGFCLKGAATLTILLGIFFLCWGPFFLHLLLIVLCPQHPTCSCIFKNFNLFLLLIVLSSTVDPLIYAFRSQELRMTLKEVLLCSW
Sequence of Melanocortin receptor 3 (P41968 whole entry): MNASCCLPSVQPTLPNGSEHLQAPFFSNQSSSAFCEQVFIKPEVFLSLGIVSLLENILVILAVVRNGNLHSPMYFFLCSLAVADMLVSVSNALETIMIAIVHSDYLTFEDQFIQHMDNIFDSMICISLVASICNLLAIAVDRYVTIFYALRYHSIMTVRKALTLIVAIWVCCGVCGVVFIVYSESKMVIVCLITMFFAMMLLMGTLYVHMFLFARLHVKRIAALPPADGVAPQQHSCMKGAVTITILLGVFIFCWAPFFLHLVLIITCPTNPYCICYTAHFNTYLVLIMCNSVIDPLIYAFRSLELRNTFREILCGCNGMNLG
Sequence of Melanocortin receptor 4 (P32245 whole entry): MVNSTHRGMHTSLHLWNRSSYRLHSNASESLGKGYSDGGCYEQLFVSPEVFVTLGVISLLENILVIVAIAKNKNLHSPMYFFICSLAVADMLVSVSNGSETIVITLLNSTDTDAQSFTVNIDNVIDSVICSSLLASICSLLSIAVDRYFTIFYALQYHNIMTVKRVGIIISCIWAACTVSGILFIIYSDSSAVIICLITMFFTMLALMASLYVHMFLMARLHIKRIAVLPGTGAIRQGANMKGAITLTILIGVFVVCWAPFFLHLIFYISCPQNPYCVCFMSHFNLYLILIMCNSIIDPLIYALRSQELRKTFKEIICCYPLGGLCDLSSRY

As to `CC1CC(CC2CCC(N(Cc3ccccc3)C(=O)CCCc3c[nH]c4ccccc34)C(C)C2)CCC1N` (stereo in doubt; form 5), the Ki at Melanocortin receptor 4 is 2.1 µM; at Melanocortin receptor 3 it was 31 µM; in experiment [1], 1.3 µM; on Melanocortin receptor 5, 5 µM.

In the case of `NCCCN(C/C(Cl)=C/c1ccccc1)C(=O)CCCc1c[nH]c2ccccc12`, the Ki worked out at 7 µM on Melanocortin receptor 4, 18 µM at Melanocortin receptor 3, 6.1 µM in experiment [1] and 31 µM on Melanocortin receptor 5.

For the compound `CCCCCN(Cc1ccc(N(CC)CC)cc1)C(=O)CCCc1c[nH]c2ccccc12`, the Ki on Melanocortin receptor 4 is 78 µM; on Melanocortin receptor 3, 289 µM; in experiment [1] it was 72 µM; at Melanocortin receptor 5, 408 µM.

For `NCC1CCC(CN(Cc2ccccc2)C(=O)CCCc2c[nH]c3ccccc23)CC1` (centres undefined), the Ki at Melanocortin receptor 4 stood at 4.4 µM; on Melanocortin receptor 3, 27 µM; in experiment [1], 2.5 µM; on Melanocortin receptor 5, 18 µM.

On to `NCCN(Cc1ccc2ccccc2c1)C(=O)c1c[nH]c2ccccc12`, for which the Ki at Melanocortin receptor 4 was determined as 66 µM; at Melanocortin receptor 3 it was 134 µM; in experiment [1], 3.6 µM; at Melanocortin receptor 5, 27 µM.

In the case of `N=C(N)NCCN(Cc1ccc2ccccc2c1)C(=O)Cc1c[nH]c2ccccc12`, the Ki on Melanocortin receptor 4 came out at 179 µM; at Melanocortin receptor 3 it was 57 µM; in experiment [1], 19 µM; at Melanocortin receptor 5 it was 15 µM.

Consider `NC1CCC(CC2CCC(N(Cc3ccccc3Cl)C(=O)CCCc3c(Cc4ccc(O)cc4)[nH]c4ccccc34)CC2)CC1` (centres undefined), for which the Ki was determined as 14 µM on Melanocortin receptor 4, 26 µM on Melanocortin receptor 3, 6.6 µM in experiment [1] and 97 µM on Melanocortin receptor 5.

As to `NCCCCCCN(C/C(Cl)=C/c1ccccc1)C(=O)CCCc1c[nH]c2ccccc12`, the inhibitory constant (Ki) at Melanocortin receptor 4 came out at 3.8 µM; on Melanocortin receptor 3, 26 µM; in experiment [1], 2.4 µM; on Melanocortin receptor 5 it was 21 µM.

Take `NC1CCC(CC2CCC(N(C/C(Cl)=C/c3ccccc3)C(=O)CCCc3c[nH]c4ccccc34)CC2)CC1` (stereo in doubt; form 3): the Ki on Melanocortin receptor 4 stood at 5.2 µM; on Melanocortin receptor 3 it was 33 µM; in experiment [1] it was 2.3 µM; on Melanocortin receptor 5, 5.4 µM.

For the compound `CSc1ccc(CN(C(=O)CCCc2c(Cc3ccc(O)cc3)[nH]c3ccccc23)C2CCC(CC3CCC(N)CC3)CC2)cc1` (centres undefined), the Ki at Melanocortin receptor 4 was determined as 4.5 µM; at Melanocortin receptor 3 it was 201 µM; in experiment [1], 17 µM; at Melanocortin receptor 5, 8.9 µM.

Turning to `NCCCN(Cc1ccccc1)C(=O)CCCc1c[nH]c2ccccc12`, the Ki at Melanocortin receptor 4 is 16 µM; at Melanocortin receptor 3 it was 45 µM; in experiment [1], 17 µM; on Melanocortin receptor 5, 25 µM.

Regarding `CC1CC(CC2CCC(N(C/C(Cl)=C/c3ccccc3)C(=O)CCCc3c[nH]c4ccccc34)C(C)C2)CCC1N` (stereo in doubt; form 1), the Ki is 7.7 µM at Melanocortin receptor 4, 64 µM at Melanocortin receptor 3, 5.6 µM in experiment [1] and 9.1 µM at Melanocortin receptor 5.

Take `N[C@H]1CC[C@H](N(C/C(Cl)=C/c2ccccc2)C(=O)CCCc2c[nH]c3ccccc23)CC1`: the Ki is 3.2 µM on Melanocortin receptor 4, 10 µM on Melanocortin receptor 3, 2.8 µM in experiment [1] and 10 µM at Melanocortin receptor 5.

As to `NCCCCCN(Cc1ccc2ccccc2c1)C(=O)Cc1c[nH]c2ccccc12`, the Ki was 13 µM on Melanocortin receptor 4, 50 µM at Melanocortin receptor 3, 1.5 µM in experiment [1] and 5.2 µM at Melanocortin receptor 5.

With `NCCCN(C/C=C/c1ccccc1)C(=O)c1c[nH]c2ccccc12`, the Ki amounted to 23 µM on Melanocortin receptor 4, 172 µM at Melanocortin receptor 3, 17 µM in experiment [1] and 12 µM on Melanocortin receptor 5.

Consider `NCCCCCN(Cc1ccccc1)C(=O)[C@H](N)Cc1ccc(-c2ccccc2)cc1`, for which the Ki on Melanocortin receptor 4 stood at 14 µM; on Melanocortin receptor 3 it was 18 µM; in experiment [1], 3.9 µM; at Melanocortin receptor 5 it was 20 µM.

For the compound `NCCN(C(=O)CCCc1c[nH]c2ccccc12)C1CCC2(CCCCC2)CC1`, the Ki at Melanocortin receptor 4 was 10 µM; on Melanocortin receptor 3 it was 2.7 µM; in experiment [1], 3.2 µM; on Melanocortin receptor 5 it was 12 µM.

As for `NCCCCN(Cc1ccccc1)C(=O)CCCc1c(Cc2ccc(O)cc2)[nH]c2ccccc12`, the Ki worked out at 6.2 µM on Melanocortin receptor 4, 16 µM on Melanocortin receptor 3, 7.7 µM in experiment [1] and 4.6 µM on Melanocortin receptor 5.

For the compound `NCc1ccc(CN(C/C=C/c2ccccc2)C(=O)CCCc2c[nH]c3ccccc23)cc1`, the Ki stood at 7.3 µM on Melanocortin receptor 4, 44 µM on Melanocortin receptor 3, 2.6 µM in experiment [1] and 9.7 µM on Melanocortin receptor 5.

For `N#Cc1ccc(CN(C(=O)CCCc2c[nH]c3ccccc23)C2CCC(CC3CCC(N)CC3)CC2)cc1` (stereo in doubt; form 2), the Ki at Melanocortin receptor 4 is 1.6 µM; on Melanocortin receptor 3 it was 20 µM; in experiment [1] it was 1.5 µM; at Melanocortin receptor 5 it was 3.9 µM.

In the case of `COc1ccccc1/C=C/CN(C(=O)CCCc1c[nH]c2ccccc12)C1CCC(CC2CCC(N)CC2)CC1` (stereo in doubt; form 1), the Ki was found to be 4.9 µM at Melanocortin receptor 4, 17 µM at Melanocortin receptor 3, 1.5 µM in experiment [1] and 7.5 µM on Melanocortin receptor 5.

Regarding `NC1CCC(CC2CCC(N(C/C(Cl)=C/c3ccccc3)C(=O)COc3ccc4ccccc4c3)CC2)CC1` (stereo in doubt; form 8), the Ki is 3.7 µM at Melanocortin receptor 4, 62 µM at Melanocortin receptor 3, 1.6 µM in experiment [1] and 42 µM at Melanocortin receptor 5.

For the compound `Cc1ccccc1CN(C(=O)CCCc1c(Cc2ccc(O)cc2)[nH]c2ccccc12)C1CCC(CC2CCC(N)CC2)CC1` (centres undefined), the Ki is 4.1 µM at Melanocortin receptor 4, 349 µM on Melanocortin receptor 3, 4.7 µM in experiment [1] and 4.4 µM at Melanocortin receptor 5.

Regarding `COc1cc(O)ccc1/C=C/CN(C(=O)CCCc1c[nH]c2ccccc12)C1CCC(CC2CCC(N)CC2)CC1` (stereo in doubt; form 1), the Ki is 6.4 µM at Melanocortin receptor 4, 37 µM on Melanocortin receptor 3, 2.9 µM in experiment [1] and 7.6 µM on Melanocortin receptor 5.

In the case of `C/C(=C\c1ccccc1)CN(CCCN)C(=O)CCCc1cccs1`, the inhibition constant (Ki) turned out to be 14 µM on Melanocortin receptor 4, 63 µM on Melanocortin receptor 3, 6.8 µM in experiment [1] and 91 µM at Melanocortin receptor 5.

As to `NCCCCCN(CCCc1ccccc1)C(=O)Cc1c[nH]c2ccccc12`, the Ki on Melanocortin receptor 4 was found to be 77 µM; at Melanocortin receptor 3 it was 47 µM; in experiment [1], 12 µM; on Melanocortin receptor 5 it was 7.9 µM.

In the case of `NC(N)=NCCCCN(Cc1ccc2ccccc2c1)C(=O)CCc1c[nH]c2ccccc12`, the Ki was 116 µM at Melanocortin receptor 4, 50 µM on Melanocortin receptor 3, 12 µM in experiment [1] and 21 µM on Melanocortin receptor 5.

Regarding `NC1CCCC(N(Cc2ccccc2)C(=O)CCCc2c[nH]c3ccccc23)C1` (centres undefined), the Ki at Melanocortin receptor 4 was determined as 5.7 µM; on Melanocortin receptor 3, 30 µM; in experiment [1], 3.3 µM; at Melanocortin receptor 5, 18 µM.

Turning to `N=C(N)NC1CCC(CC2CCC(N(C/C=C/c3ccccc3)C(=O)CCCc3c[nH]c4ccccc34)CC2)CC1` (centres undefined), the Ki on Melanocortin receptor 4 was 38 µM; on Melanocortin receptor 3 it was 23 µM; in experiment [1], 3.5 µM; at Melanocortin receptor 5 it was 37 µM.

`COC(=O)c1ccc(CN(C(=O)CCCc2c(Cc3ccc(O)cc3)[nH]c3ccccc23)C2CCC(CC3CCC(N)CC3)CC2)cc1` (centres undefined): the Ki at Melanocortin receptor 4 was 2.7 µM; at Melanocortin receptor 3 it was 46 µM; in experiment [1], 4.3 µM; on Melanocortin receptor 5 it was 6.7 µM.

As for `C/C(=C/c1ccccc1)CN(CCCCCN)C(=O)CCCc1c[nH]c2ccccc12`, the Ki at Melanocortin receptor 4 is 4.7 µM; on Melanocortin receptor 3, 22 µM; in experiment [1], 3.5 µM; at Melanocortin receptor 5, 8.7 µM.

For `N=C(N)NC1CCC(CC2CCC(N(Cc3ccccc3)C(=O)CCCc3c[nH]c4ccccc34)CC2)CC1` (centres undefined), the Ki at Melanocortin receptor 4 turned out to be 3.4 µM; on Melanocortin receptor 3, 19 µM; in experiment [1], 1.5 µM; at Melanocortin receptor 5 it was 2.6 µM.

Consider `CC(c1ccc2ccccc2c1)N(CCN)C(=O)Cc1c[nH]c2ccccc12` (centres undefined), for which the Ki at Melanocortin receptor 4 was 11 µM; at Melanocortin receptor 3, 11 µM; in experiment [1] it was 4.4 µM; on Melanocortin receptor 5, 19 µM.

`C=C(Br)CN(C(=O)CCCc1c[nH]c2ccccc12)C1CCC(CC2CCC(N)CC2)CC1` (stereo in doubt; form 3): the inhibitory constant (Ki) came out at 3.3 µM on Melanocortin receptor 4, 21 µM at Melanocortin receptor 3, 1 µM in experiment [1] and 7.8 µM at Melanocortin receptor 5.

Take `NCCCCCCCN(Cc1ccccc1)C(=O)CCCc1c[nH]c2ccccc12`: the inhibitory constant (Ki) on Melanocortin receptor 4 came to 3.8 µM; on Melanocortin receptor 3, 28 µM; in experiment [1] it was 4 µM; on Melanocortin receptor 5, 3.2 µM.

In the case of `NC1CCC(CC2CCC(N(Cc3c(F)cccc3F)C(=O)CCCc3c(Cc4ccc(O)cc4)[nH]c4ccccc34)CC2)CC1` (centres undefined), the Ki at Melanocortin receptor 4 worked out at 3 µM; at Melanocortin receptor 3 it was 65 µM; in experiment [1] it was 2.1 µM; at Melanocortin receptor 5 it was 21 µM.

Turning to `N#Cc1ccc(CN(C(=O)CCCc2c[nH]c3ccccc23)C2CCC(CC3CCC(N)CC3)CC2)cc1` (stereo in doubt; form 1), the Ki at Melanocortin receptor 4 worked out at 2 µM; on Melanocortin receptor 3, 12 µM; in experiment [1], 1.6 µM; on Melanocortin receptor 5, 6.5 µM.

`NCCCN(C/C=C/c1ccccc1)C(=O)Cc1ccc2ccccc2c1`: the Ki on Melanocortin receptor 4 was 6.4 µM; on Melanocortin receptor 3, 33 µM; in experiment [1], 2.5 µM; on Melanocortin receptor 5 it was 10 µM.

On to `C/C(=C\c1ccccc1)CN(CCCN)C(=O)c1c[nH]c2ccccc12`, for which the Ki on Melanocortin receptor 4 was 7.4 µM; at Melanocortin receptor 3, 24 µM; in experiment [1], 0.85 µM; on Melanocortin receptor 5 it was 0.93 µM.

With `N[C@H]1CC[C@H](C[C@H]2CC[C@H](N(C/C(Cl)=C/c3ccccc3)C(=O)CCCc3c[nH]c4ccccc34)CC2)CC1`, the Ki at Melanocortin receptor 4 came out at 6.8 µM; at Melanocortin receptor 3, 45 µM; in experiment [1], 3.1 µM; at Melanocortin receptor 5, 8.4 µM.

Take `NCC1CCC(CN(C/C(Cl)=C/c2ccccc2)C(=O)CCCc2c[nH]c3ccccc23)CC1` (centres undefined): the Ki on Melanocortin receptor 4 is 2.5 µM; at Melanocortin receptor 3 it was 33 µM; in experiment [1], 1.6 µM; at Melanocortin receptor 5, 11 µM.
